Reference: PubChem BioAssay (NCI)
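GI50 = concentration required for 50% inhibition of growth. TGI marks complete inhibition of growth.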

Assays:
Test in all cases: NCI-60 cell line screen, 384-well format
[1] = tested on: HCT-15 colon
[2] = tested on: T-47D breast
[3] = tested on: OVCAR-3 ovarian
[4] = tested on: BT-549 breast
[5] = tested on: A498 renal
[6] = tested on: SK-MEL-28 melanoma
[7] = tested on: K-562 leukemia
[8] = tested on: IGROV1 ovarian
[9] = tested on: NCI-H522 lung
[10] = tested on: SW-620 colon
[11] = tested on: NCI-H322M lung
[12] = tested on: HOP-92 NSCLC
[13] = tested on: MALME-3M melanoma
[14] = tested on: UACC-62 melanoma
[15] = tested on: MDA-MB-468 breast
[16] = tested on: SK-MEL-2 melanoma
[17] = tested on: 786-0 renal
[18] = tested on: SNB-19 CNS
[19] = tested on: MCF7 breast
[20] = tested on: RXF 393 renal
[21] = tested on: OVCAR-5 ovarian
[22] = tested on: U251 glioblastoma
[23] = tested on: SK-OV-3 ovarian
[24] = tested on: MDA-MB-435 melanoma
[25] = tested on: NCI-H226 lung
[26] = tested on: NCI-H460 NSCLC
[27] = tested on: SK-MEL-5 melanoma
[28] = tested on: UACC-257 melanoma
[29] = tested on: UO-31 renal
[30] = tested on: SF-539 CNS
[31] = tested on: SF-295 CNS
[32] = tested on: M14 melanoma
[33] = tested on: HT29 colon
[34] = tested on: NCI/ADR-RES ovarian
[35] = tested on: HOP-62 NSCLC
[36] = tested on: OVCAR-4 ovarian
[37] = tested on: CCRF-CEM leukemia
[38] = tested on: A549 NSCLC
[39] = tested on: TK-10 renal
[40] = tested on: RPMI-8226 leukemia
[41] = tested on: HCC-2998 colon
[42] = tested on: DU-145 prostate
[43] = tested on: SN12C renal
[44] = tested on: MOLT-4 leukemia
[45] = tested on: NCI-H23 lung
[46] = tested on: HL-60(TB) leukemia
[47] = tested on: HCT-116 colon
[48] = tested on: COLO 205 colon
[49] = tested on: MDA-MB-231 breast
[50] = tested on: SR leukemia
[51] = tested on: ACHN renal
[52] = tested on: LOX IMVI melanoma
[53] = tested on: PC-3 prostate
[54] = tested on: OVCAR-8 ovarian
[55] = tested on: KM12 colon
[56] = tested on: SF-268 CNS
[57] = tested on: CAKI-1 renal
[58] = tested on: EKVX NSCLC
[59] = tested on: SNB-75 CNS

Compound: O=P1(S)OC[C@H]2O[C@@H]3[C@H](F)[C@@H]2OP(O)(=S)OC[C@H]2O[C@H]([C@H](F)[C@@H]2O1)n1cnc2c(ncnc21)NC/C=C/CNc1ncnc2c1ncn23 (some centres not stated)
- GI50 [1]: > 100 µM
- TGI [1]: > 100 µM
- GI50 [2]: > 100 µM
- TGI [2]: > 100 µM
- GI50 [3]: 4.99 µM
- TGI [3]: 38.8 µM
- GI50 [4]: 9.28 µM
- TGI [4]: > 100 µM
- GI50 [5]: > 100 µM
- TGI [5]: > 100 µM
- GI50 [6]: > 100 µM
- TGI [6]: > 100 µM
- GI50 [7]: > 100 µM
- TGI [7]: > 100 µM
- GI50 [8]: > 100 µM
- TGI [8]: > 100 µM
- GI50 [9]: 7.35 µM
- TGI [9]: 44.2 µM
- GI50 [10]: > 100 µM
- TGI [10]: > 100 µM
- GI50 [11]: > 100 µM
- TGI [11]: > 100 µM
- GI50 [12]: > 100 µM
- TGI [12]: > 100 µM
- GI50 [13]: > 100 µM
- TGI [13]: > 100 µM
- GI50 [14]: > 100 µM
- TGI [14]: > 100 µM
- GI50 [15]: 2.24 µM
- TGI [15]: 7.62 µM
- GI50 [16]: 2.82 µM
- TGI [16]: 52 µM
- GI50 [17]: > 100 µM
- TGI [17]: > 100 µM
- GI50 [18]: > 100 µM
- TGI [18]: > 100 µM
- GI50 [19]: > 100 µM
- TGI [19]: > 100 µM
- GI50 [20]: 0.0445 µM
- TGI [20]: 19.7 µM
- GI50 [21]: > 100 µM
- TGI [21]: > 100 µM
- GI50 [22]: > 100 µM
- TGI [22]: > 100 µM
- GI50 [23]: 24.3 µM
- TGI [23]: > 100 µM
- GI50 [24]: 2.97 µM
- TGI [24]: 46 µM
- GI50 [25]: 0.0932 µM
- TGI [25]: 0.361 µM
- GI50 [26]: > 100 µM
- TGI [26]: > 100 µM
- GI50 [27]: > 100 µM
- TGI [27]: > 100 µM
- GI50 [28]: 0.151 µM
- TGI [28]: 19.3 µM
- GI50 [29]: > 100 µM
- TGI [29]: > 100 µM
- GI50 [30]: 7.46 µM
- TGI [30]: > 100 µM
- GI50 [31]: > 100 µM
- TGI [31]: > 100 µM
- GI50 [32]: > 100 µM
- TGI [32]: > 100 µM
- GI50 [33]: 19.2 µM
- TGI [33]: > 100 µM
- GI50 [34]: > 100 µM
- TGI [34]: > 100 µM
- GI50 [35]: > 100 µM
- TGI [35]: > 100 µM
- GI50 [36]: 11.3 µM
- TGI [36]: > 100 µM
- GI50 [37]: 39.2 µM
- TGI [37]: > 100 µM
- GI50 [38]: > 100 µM
- TGI [38]: > 100 µM
- GI50 [39]: > 100 µM
- TGI [39]: > 100 µM
- GI50 [40]: 22.1 µM
- TGI [40]: > 100 µM
- GI50 [41]: > 100 µM
- TGI [41]: > 100 µM
- GI50 [42]: > 100 µM
- TGI [42]: > 100 µM
- GI50 [43]: > 100 µM
- TGI [43]: > 100 µM
- GI50 [44]: 5.67 µM
- TGI [44]: 20.6 µM
- GI50 [45]: > 100 µM
- TGI [45]: > 100 µM
- GI50 [46]: 0.189 µM
- TGI [46]: 0.4 µM
- GI50 [47]: > 100 µM
- TGI [47]: > 100 µM
- GI50 [48]: 48.6 µM
- TGI [48]: > 100 µM
- GI50 [49]: > 100 µM
- TGI [49]: > 100 µM
- GI50 [50]: 0.0295 µM
- TGI [50]: 0.101 µM
- GI50 [51]: > 100 µM
- TGI [51]: > 100 µM
- GI50 [52]: > 100 µM
- TGI [52]: > 100 µM
- GI50 [53]: > 100 µM
- TGI [53]: > 100 µM
- GI50 [54]: > 100 µM
- TGI [54]: > 100 µM
- GI50 [55]: 51.2 µM
- TGI [55]: > 100 µM
- GI50 [56]: > 100 µM
- TGI [56]: > 100 µM
- GI50 [57]: > 100 µM
- TGI [57]: > 100 µM

Compound: C=CC(=O)Nc1cc(N2CCN(CC)CC2)ccc1Nc1cc(N(C)C(=O)Nc2c(Cl)c(OC)cc(OC)c2Cl)ncn1
- GI50 [1]: 2.83 µM
- TGI [1]: 6.99 µM
- GI50 [2]: 1.31 µM
- TGI [2]: 2.99 µM
- GI50 [3]: 1.4 µM
- TGI [3]: 2.85 µM
- GI50 [4]: 1.4 µM
- TGI [4]: 2.73 µM
- GI50 [5]: 1.72 µM
- TGI [5]: 3.14 µM
- GI50 [6]: 2.05 µM
- TGI [6]: 4.39 µM
- GI50 [7]: 1.85 µM
- TGI [7]: 3.4 µM
- GI50 [8]: 1.86 µM
- TGI [8]: 3.66 µM
- GI50 [9]: 1.63 µM
- TGI [9]: 3.02 µM
- GI50 [10]: 1.77 µM
- TGI [10]: 3.18 µM
- GI50 [11]: 10.5 µM
- TGI [11]: 31 µM
- GI50 [12]: 1.02 µM
- TGI [12]: 2.77 µM
- GI50 [13]: 1.96 µM
- TGI [13]: 3.47 µM
- GI50 [14]: 1.56 µM
- TGI [14]: 3.03 µM
- GI50 [15]: 0.785 µM
- TGI [15]: 2.01 µM
- GI50 [16]: 1.21 µM
- TGI [16]: 2.46 µM
- GI50 [17]: 1.71 µM
- TGI [17]: 3.14 µM
- GI50 [18]: 2.89 µM
- TGI [18]: 7.71 µM
- GI50 [19]: 1.75 µM
- TGI [19]: 6.28 µM
- GI50 [20]: 0.68 µM
- TGI [20]: 2.19 µM
- GI50 [21]: 7.01 µM
- TGI [21]: 19 µM
- GI50 [22]: 1.89 µM
- TGI [22]: 3.44 µM
- GI50 [23]: 2.51 µM
- TGI [23]: 6.71 µM
- GI50 [24]: 2.56 µM
- TGI [24]: 5.84 µM
- GI50 [25]: 1.84 µM
- TGI [25]: 4.39 µM
- GI50 [26]: 1.73 µM
- TGI [26]: 3.18 µM
- GI50 [27]: 1.8 µM
- TGI [27]: 3.43 µM
- GI50 [28]: 1.42 µM
- TGI [28]: 2.78 µM
- GI50 [29]: 2.03 µM
- TGI [29]: 4.08 µM
- GI50 [30]: 1.58 µM
- TGI [30]: 2.95 µM
- GI50 [31]: 15.8 µM
- TGI [31]: 29.4 µM
- GI50 [32]: 2.38 µM
- TGI [32]: 5.12 µM
- GI50 [33]: 1.97 µM
- TGI [33]: 3.96 µM
- GI50 [58]: 2.34 µM
- TGI [58]: 5.57 µM
- GI50 [34]: > 44.6 µM
- TGI [34]: > 78.5 µM
- GI50 [35]: 2.45 µM
- TGI [35]: 6.36 µM
- GI50 [36]: 2.03 µM
- TGI [36]: 6.62 µM
- GI50 [37]: 1.56 µM
- TGI [37]: 2.92 µM
- GI50 [38]: 5.63 µM
- TGI [38]: 13.1 µM
- GI50 [39]: 2.18 µM
- TGI [39]: 5.02 µM
- GI50 [40]: 0.605 µM
- TGI [40]: 1.52 µM
- GI50 [41]: 1.7 µM
- TGI [41]: 3.08 µM
- GI50 [42]: 1.91 µM
- TGI [42]: 3.76 µM
- GI50 [43]: 2.01 µM
- TGI [43]: 3.74 µM
- GI50 [44]: 0.91 µM
- TGI [44]: 2.21 µM
- GI50 [45]: 3.68 µM
- TGI [45]: 10 µM
- GI50 [46]: 1.94 µM
- TGI [46]: 3.37 µM
- GI50 [47]: 1.88 µM
- TGI [47]: 3.46 µM
- GI50 [59]: 1.98 µM
- TGI [59]: 4.31 µM
- GI50 [48]: 2.31 µM
- TGI [48]: 4.24 µM
- GI50 [49]: 1.67 µM
- TGI [49]: 3.31 µM
- GI50 [50]: 0.922 µM
- TGI [50]: 2.23 µM
- GI50 [51]: 4.55 µM
- TGI [51]: 10.7 µM
- GI50 [52]: 1.87 µM
- TGI [52]: 3.28 µM
- GI50 [53]: 1.81 µM
- TGI [53]: 3.27 µM
- GI50 [54]: 1.76 µM
- TGI [54]: 3.31 µM
- GI50 [55]: 1.76 µM
- TGI [55]: 3.23 µM
- GI50 [56]: 1.88 µM
- TGI [56]: 3.96 µM
- GI50 [57]: 2.64 µM
- TGI [57]: 7.01 µM
